Results: patent US10149876B2, “Tripterygium wilfordii extracts to overcome chemotherapy resistance” (WESTERN UNIVERSITY OF HEALTH SCIENCES, priority 2012, dated 2018)
Where “and” joins values, the source holds several entries; their conditions need not be identical. Equal entries are not always repeated. Where two headings read alike, the source gives them in different places.

Tested on: PC3-TxR cells
Assay: SRB cell viability assay, docetaxel-resistant PC3-TxR cells
Settings: Homo sapiens
Method: The CE is expressed as: CE=IC50D/IC50E+D. IC50D is the IC50 of the chemotherapeutic drug against which an test extract (or other compound suspected of having a CE) is evaluated. IC50E+D is the IC50 of the combination of the test extract and chemotherapeutic drug. The CE of a test extract or compound can vary depending on the type of cell and the specific chemotherapeutic or class or combination of therapeutics that are being evaluated.
The variance between those concentrations can be quantitated by calculating the Chemosensitizing Utility Index (CUI) value for a test extract or compound. The CUI is expressed as: CUI=CE×(IC50E/ConE). […] ConE is the concentration of an extract or compound that is required to produce desirable CE.
CE and CUI values were obtained individually for the aqueous, ethanol, and chloroform extracts that are described above. […] In the Examples, the ethanol, is referred to as Lei Gong Teng extract (LGT-E).
PC3-TxR cells were plated into sterile, F-bottom Cellstar® 96 well cell culture plates with lids (Cat #655180, Purchased from Greiner Bio-one, Monroe, N.C.) by placing into each well, 100 μl of medium containing 3000 cells in RPMI 1640 supplemented with 10% fetal bovine serum (Thermo Scientific, Logan, Utah) and a solution of penicillin (100 U/ml) and streptomycin (100 μg/ml) (Life Technologies Grand Island, N.Y.). The cells were at passage 52 at the time of plating. Triplicate wells were assigned to each experimental condition tested, and a 24 hour recovery period for the cells following the seeding of the wells was allowed. During the recovery period, the cells were incubated at 37° C. and 5% CO2.
The LGT-E was prepared by adding an appropriate amount of LGT-E powder to DMSO to form a 500 mg/ml stock solution. The stock solution was alternately vortexed and sonicated until the LGT-E powder went into solution. The stock solution was diluted in RPMI 1640 medium (Mediatech, Manassas, Va., or Life Technologies Grand Island, NY) to reach the desired concentrations of LGT-E (e.g., 12, 25, or 60 μg/ml).
Pretreatment of the cells with LGT-E was carried out by aspirating the media from the wells, followed by adding 50 μl of LGT-E solution containing concentrations of either 12 or 25 μg/ml of LGT-E solution and incubation of the cells for two hours under conditions of 37° C. and 5% CO2.
Media was aspirated from each well, and replaced with a 10% solution of cold trichloroacetic acid (TCA) (Cat #: T6399, purchased from Sigma-Aldrich), and incubated for one hour at 4° C. After the TCA incubation, the TCA solution was aspirated, and the cells were washed five times with tap water. After removing the last wash, the plates were left with lids off at room temperature until the surfaces were dry, which took one to two hours. Then 50 μl of a 0.4% solution of sul-forhodamine B (SRB) sodium salt (Cat #: S9012, purchased from Sigma-Aldrich) was added to each well and the plates were incubated at room temperature for 20 to 30 minutes. Afterwards, the wells were washed five times with a 1% acetic acid solution in 10 mM TRIS base (Cat#: 161-0719, purchased from Bio-Rad Laboratories, Hercules, Calif.). The plates were subsequently left to dry for several hours or overnight. SRB that remained in the dried wells was solubilized by adding 100 μl of SRB solubilization solution (10 mM TRIS base) to each well, and placing the plates either on a gently-moving shaker or letting the plates remain stationary at room temperature until the SRB dissolves, which takes about five to ten minutes. The amount of SRB in each well, which correlated directly to the number of living cells at fixation, was determined spectrophotometrically at an absorbance of 565 nm by a microplate reader.

## CC(=O)O[C@@]12CO[C@@H]1C[C@H](O)[C@@]1(C)C(=O)[C@H](O)C3=C(C)[C@@H](OC(=O)[C@H](O)[C@@H](NC(=O)OC(C)(C)C)c4ccccc4)C[C@@](O)([C@@H](OC(=O)c4ccccc4)[C@H]21)C3(C)C [Docetaxel, docetaxel]
read-out: % viable, PC3-TxR, LGT-E 12 μg/ml pre-treatment, docetaxel 0.001 nM 72 h
  viability at 1 pM: 100%
read-out: % viable, PC3-TxR, LGT-E 12 μg/ml pre-treatment, docetaxel 0.1 nM 72 h
  viability at 0.0001 µM: 105%
read-out: % viable, PC3-TxR, LGT-E 12 μg/ml pre-treatment, docetaxel 0.333 nM 72 h
  viability at 0.000333 µM: 103%
read-out: % viable, PC3-TxR, LGT-E 12 μg/ml pre-treatment, docetaxel 1 nM 72 h
  viability at 0.001 µM: 97.8%
read-out: % viable, PC3-TxR, LGT-E 12 μg/ml pre-treatment, docetaxel 3.33 nM 72 h
  viability at 0.00333 µM: 62.4%
read-out: % viable, PC3-TxR, LGT-E 12 μg/ml pre-treatment, docetaxel 10 nM 72 h
  viability at 0.01 µM: 21.2%
read-out: % viable, PC3-TxR, LGT-E 12 μg/ml pre-treatment, docetaxel 33.3 nM 72 h
  viability at 0.0333 µM: 7%
read-out: % viable, PC3-TxR, LGT-E 12 μg/ml pre-treatment, docetaxel 100 nM 72 h
  viability at 0.1 µM: 4.1%
read-out: % viable, PC3-TxR, LGT-E 25 μg/ml pre-treatment, docetaxel 0.001 nM 72 h
  viability at 1 pM: 100%
read-out: % viable, PC3-TxR, LGT-E 25 μg/ml pre-treatment, docetaxel 0.1 nM 72 h
  viability at 0.0001 µM: 99.9%
read-out: % viable, PC3-TxR, LGT-E 25 μg/ml pre-treatment, docetaxel 0.333 nM 72 h
  viability at 0.000333 µM: 99.1%
read-out: % viable, PC3-TxR, LGT-E 25 μg/ml pre-treatment, docetaxel 1 nM 72 h
  viability at 0.001 µM: 82.5%
read-out: % viable, PC3-TxR, LGT-E 25 μg/ml pre-treatment, docetaxel 3.33 nM 72 h
  viability at 0.00333 µM: 34.6%
read-out: % viable, PC3-TxR, LGT-E 25 μg/ml pre-treatment, docetaxel 10 nM 72 h
  viability at 0.01 µM: 9.4%
read-out: % viable, PC3-TxR, LGT-E 25 μg/ml pre-treatment, docetaxel 33.3 nM 72 h
  viability at 0.0333 µM: 4.9%
read-out: % viable, PC3-TxR, LGT-E 25 μg/ml pre-treatment, docetaxel 100 nM 72 h
  viability at 0.1 µM: 4.7%
read-out: % viable, PC3-TxR, no LGT-E pre-treatment (Table 2), docetaxel 0.001 nM 72 h
  viability at 1 pM: 100%
read-out: % viable, PC3-TxR, no LGT-E pre-treatment (Table 2), docetaxel 0.1 nM 72 h
  viability at 0.0001 µM: 98.5%
read-out: % viable, PC3-TxR, no LGT-E pre-treatment (Table 2), docetaxel 0.333 nM 72 h
  viability at 0.000333 µM: 100%
read-out: % viable, PC3-TxR, no LGT-E pre-treatment (Table 2), docetaxel 1 nM 72 h
  viability at 0.001 µM: 105%
read-out: % viable, PC3-TxR, no LGT-E pre-treatment (Table 2), docetaxel 10 nM 72 h
  viability at 0.01 µM: 77%
read-out: % viable, PC3-TxR, no LGT-E pre-treatment (Table 2), docetaxel 33.3 nM 72 h
  viability at 0.0333 µM: 29.7%
read-out: % viable, PC3-TxR, no LGT-E pre-treatment (Table 2), docetaxel 100 nM 72 h
  viability at 0.1 µM: 11.3%
read-out: % viable, PC3-TxR, no LGT-E pre-treatment (Table 4), docetaxel 0.001 nM 72 h
  viability at 1 pM: 100%
read-out: % viable, PC3-TxR, no LGT-E pre-treatment (Table 4), docetaxel 0.1 nM 72 h
  viability at 0.0001 µM: 98.7%
read-out: % viable, PC3-TxR, no LGT-E pre-treatment (Table 4), docetaxel 0.333 nM 72 h
  viability at 0.000333 µM: 99.9%
read-out: % viable, PC3-TxR, no LGT-E pre-treatment (Table 4), docetaxel 1 nM 72 h
  viability at 0.001 µM: 99.2%
read-out: % viable, PC3-TxR, no LGT-E pre-treatment (Table 4), docetaxel 3.33 nM 72 h
  viability at 0.00333 µM: 98.5%
read-out: % viable, PC3-TxR, no LGT-E pre-treatment (Table 4), docetaxel 10 nM 72 h
  viability at 0.01 µM: 76.7%
read-out: % viable, PC3-TxR, no LGT-E pre-treatment (Table 4), docetaxel 33.3 nM 72 h
  viability at 0.0333 µM: 32.9%
read-out: % viable, PC3-TxR, no LGT-E pre-treatment (Table 4), docetaxel 100 nM 72 h
  viability at 0.1 µM: 13.4%
read-out: % viable, PC3-TxR, no LGT-E pre-treatment (Table 11, Example 4), docetaxel 0.001 nM 72 h
  viability at 1 pM: 100%
read-out: % viable, PC3-TxR, no LGT-E pre-treatment (Table 11, Example 4), docetaxel 0.1 nM 72 h
  viability at 0.0001 µM: 98.7%
read-out: % viable, PC3-TxR, no LGT-E pre-treatment (Table 11, Example 4), docetaxel 0.333 nM 72 h
  viability at 0.000333 µM: 99.9%
read-out: % viable, PC3-TxR, no LGT-E pre-treatment (Table 11, Example 4), docetaxel 1 nM 72 h
  viability at 0.001 µM: 99.2%
read-out: % viable, PC3-TxR, no LGT-E pre-treatment (Table 11, Example 4), docetaxel 3.33 nM 72 h
  viability at 0.00333 µM: 98.5%
read-out: % viable, PC3-TxR, no LGT-E pre-treatment (Table 11, Example 4), docetaxel 10 nM 72 h
  viability at 0.01 µM: 76.7%
read-out: % viable, PC3-TxR, no LGT-E pre-treatment (Table 11, Example 4), docetaxel 33.3 nM 72 h
  viability at 0.0333 µM: 32.9%
read-out: % viable, PC3-TxR, no LGT-E pre-treatment (Table 11, Example 4), docetaxel 100 nM 72 h
  viability at 0.1 µM: 13.4%
read-out: IC50 of drug when cells pre-treated with Chemosensitizing Agent before drug treatment, docetaxel, LGT-E 25 μg/ml pre-treatment
  IC50: 2.19 nM and 0.00177 µg/mL
read-out: IC50 of drug when cells treated with drug only, docetaxel, line of LGT-E 25 μg/ml
  IC50: 18.3 nM and 0.0148 µg/mL
